Measured values taken from patent US11298361B2, “Fused benzazepines for treatment of Tourette's Syndrome” (EMALEX BIOSCIENCES, INC., priority 2012, dated 2022).
Like-named read-outs stand apart in the source and are kept apart here. One block for each compound: values may come before it.

Legend:
[1] = biological target: D1/D5 receptor (^3H-23390); details: radioligand ^3H-23390; cited from earlier work
[2] = tested on: CAR; details: cited from earlier work
[3] = biological target: D2 receptor (^3H-Spip) (Homo sapiens, UniProt P14416)
[4] = tested on: D1/D5 receptors; details: rat brain homogenates, low concentrations; cited from earlier work
[5] = tested on: D1 receptor; details: rats, D1-agonist discriminative stimulus; cited from earlier work
[6] = biological target: dopamine D1 receptors in human brain (Homo sapiens, UniProt P21728); details: radiolabeled ecopipam, healthy volunteers; cited from earlier work
[7] = tested on: hD1/hD5 receptors; experiment: Binding to cloned human receptors
Procedure: (§1) Activation of D1 receptors by dopamine and similar agonists stimulates the production of cyclic AMP (cAMP) via activation of adenylate cyclase. […] To ensure that there was no species specificity to the receptor binding profile, ecopipam's potency and selectivity were evaluated using cloned human receptors. […] Positron emission tomography (PET) studies using radiolabeled ecopipam have been conducted in healthy volunteers (Karlsson et al., Psychopharmacol. 121:300-308, 1995).

[8] = tested on: adult patients with Tourette's Syndrome; experiment: Open-label clinical study in adult patients with Tourette's Syndrome; format: in vivo, human
Procedure: A clinical program was carried out to test the safety, tolerability, and activity of ecopipam in adult patients with Tourette's Syndrome. A multicenter, open-label, nonrandomized study in 25 to 30 subjects was conducted to assess the activity and safety of ecopipam in subjects with TS. […] Assessment was performed at each visit. A follow-up visit was conducted via telephone at Week 10 to record any adverse events. Ecopipam was administered daily before bedtime at 50 mg/day for Week 1 and Week 2 and at 100 mg/day for Weeks 3-8. This treatment regimen is within the scope of the present invention; the compositions and various formulations described herein can be administered as described in this Example. The activity of ecopipam was measured using the following clinical rating scales: (1) Yale Global Tic Severity Scale (YGTSS; data based on this scoring system are presented below); (2) ADHD self-report symptom checklist (ASRS); (3)Yale-Brown Obsessive Compulsive Scale (YBOCS); (4) Premonitory Urge for […]; and (6) Clinical Global Impression Improvement and Severity Scales (CGI). The demographics of the study population were as follows: eighty three percent of the subjects were male (15 out of 18); fifteen were Caucasian, two were African-American, and one was an Asian/Pacific Islander. […] Four patients reported AEs that were rated as severe and included the following: sedation, insomnia, decreased appetite, hypersensitivity, cold sweat, and feeling jittery. The following AEs were rated mild to moderate and were reported in more than three subjects: fatigue, insomnia, nausea, sedation, headache, restlessness, anxiety, muscle twitching, dysphoria, and sleeplessness. These side effects are similar to those seen in other studies with ecopipam and were not unexpected.

[9] = tested on: D1 receptors; experiment: In vitro studies on cAMP second messenger (adenylate cyclase); format: biochemical
Procedure: as §1

[10] = tested on: adenosine, benzodiazepine, glutamate/AMPA/kainate, GABA, muscarinic, nicotinic, opiate, alpha- or beta-adrenergic sites; experiment: Binding at other receptor sites
[11] = radioligand ^3H-Spip; read-out: Ki (nM) ^3H-Spip; cited from earlier work

Chain of D2 receptor (^3H-Spip) (P14416 whole entry): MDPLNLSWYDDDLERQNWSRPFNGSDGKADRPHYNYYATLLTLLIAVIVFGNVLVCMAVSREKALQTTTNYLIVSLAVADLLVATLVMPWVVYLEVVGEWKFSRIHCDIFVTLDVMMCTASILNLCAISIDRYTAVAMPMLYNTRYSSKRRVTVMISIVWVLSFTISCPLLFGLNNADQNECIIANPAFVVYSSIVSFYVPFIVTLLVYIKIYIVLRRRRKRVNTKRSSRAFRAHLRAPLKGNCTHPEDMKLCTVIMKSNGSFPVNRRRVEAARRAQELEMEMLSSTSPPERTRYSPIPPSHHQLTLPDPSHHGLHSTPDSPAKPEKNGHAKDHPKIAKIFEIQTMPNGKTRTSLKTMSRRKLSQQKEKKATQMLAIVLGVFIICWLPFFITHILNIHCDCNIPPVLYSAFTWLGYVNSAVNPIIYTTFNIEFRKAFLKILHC
Chain of dopamine D1 receptors in human brain (P21728 whole entry): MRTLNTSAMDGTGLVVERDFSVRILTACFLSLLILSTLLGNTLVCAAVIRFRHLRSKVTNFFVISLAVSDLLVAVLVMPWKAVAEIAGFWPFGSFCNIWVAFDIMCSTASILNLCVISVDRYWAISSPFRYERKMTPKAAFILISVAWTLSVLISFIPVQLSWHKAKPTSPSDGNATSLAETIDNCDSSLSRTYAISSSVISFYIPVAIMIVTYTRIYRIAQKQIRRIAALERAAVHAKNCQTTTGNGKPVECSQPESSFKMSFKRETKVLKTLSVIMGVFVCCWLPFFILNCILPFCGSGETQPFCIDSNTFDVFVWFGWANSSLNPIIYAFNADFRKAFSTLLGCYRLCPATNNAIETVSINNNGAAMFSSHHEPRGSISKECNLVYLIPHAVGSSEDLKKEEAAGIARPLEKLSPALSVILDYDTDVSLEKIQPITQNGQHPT

SMILES: CN1CCc2cc(Cl)c(O)cc2C2c3ccccc3CC21 (stereo not drawn) [Q=CH2, n=0, trans, X=Cl, Y=OH]
Ki [1]: 10 nM

SMILES: CN1CCc2cc(Cl)c(O)cc2[C@H]2c3ccccc3CC[C@@H]21 [Q=CH2, n=1, 7b(R):7a(S)(−), X=Cl, Y=OH]
CAR (MED), po [2]: 30 (po)

SMILES: CN1CCc2cc(Cl)c(O)cc2[C@@H]2c3ccccc3CC[C@H]21 [Q=CH2, n=1, 7b(S):7a(R)(+), X=Cl, Y=OH]
CAR (MED), po [2]: >30 (po)

SMILES: COc1cc2c(cc1O)C1c3ccccc3CCC1N(C)CC2 (stereo not drawn) [Q=CH2, n=1, cis, X=CH3O, Y=OH]
Ki ([3]; read-out: Ki (nM) ^3H-Spip; radioligand ^3H-Spip; cited from earlier work): > 100000 nM
Ki [1]: 6450 nM

SMILES: Cc1cc2c(cc1O)C1c3ccccc3CCC1N(C)CC2 (stereo not drawn) [Q=CH2, n=1, trans, X=CH3, Y=OH]
Ki [1]: 119 nM

SMILES: COc1cc2c(cc1O)C1c3ccccc3CCC1N(C)CC2 (stereo not drawn) [Q=CH2, n=1, trans, X=CH3O, Y=OH]
CAR (MED), po [2]: 30 mg/kg
CAR (MED), sc ([2]; in mg/kg (unit assumed)): 0.3-1
Ki [1]: 23 nM

SMILES: CN1CCc2cc(Cl)c(N)cc2C2c3ccccc3CCC21 (stereo not drawn) [Q=CH2, n=1, trans, X=Cl, Y=NH2]
CAR (MED), po [2]: 3 (po)
Ki [1]: 70 nM

SMILES: CN1CCc2cc(Cl)c(O)cc2C2c3ccccc3CCC21 (stereo not drawn) [Q=CH2, n=1, trans, X=Cl, Y=OH]
CAR (MED), po [2]: 30 mg/kg
CAR (MED), sc ([2]; in mg/kg (unit assumed)): 0.3

SMILES: CN1CCc2ccc(O)cc2C2c3ccccc3CCC21 (stereo not drawn) [Q=CH2, n=1, trans, X=H, Y=OH]
Ki [1]: 80 nM

SMILES: COc1cc2c(cc1O)C1c3ccccc3CCCC1N(C)CC2 (stereo not drawn) [Q=CH2, n=2, trans, X=CH3O, Y=OH]
CAR (MED), sc [2]: 10 (sc)
Ki [3, 11]: > 100000 nM
Ki [1]: 292 nM

SMILES: COc1cc2c(cc1O)CCN(C)C1CCCc3ccccc3C21 (stereo not drawn) [Q=CH2, n=2, trans, X=HO, Y=CH3O]
CAR (MED), sc [2]: 10 (sc)
Ki [3, 11]: > 100000 nM
Ki [1]: 7730 nM

SMILES: CN1CCc2ccc(O)cc2C2c3ccccc3OCC21 (stereo not drawn) [Q=O, n=1, trans, X=H, Y=OH]
Ki [1]: 121 nM

Affinity for hD1/hD5 receptors [7]: high affinity
Changes in lab tests ([8]; human, in vivo): none were of clinical significance
Functional action on cAMP second messenger [9]: antagonist
Concentration multiple at which it did not bind to other sites [10]: > 700 fold
SMILES: CN1CCc2cc(Cl)c(O)cc2[C@H]2c3ccccc3CC[C@@H]21 [ecopipam, (−)-trans-6,7,7a,8,9,13b-hexahydro-3-chloro-2-hydroxy-N-methyl-5H-benzo [d]-naphtho-[2,1-b]azepine]
Affinity for D1/D5 receptors [4]: high affinity
Action on dopamine-agonist-induced behaviors [5]: selective D1 antagonist
PET binding in the human brain [6]: specific binding in the human brain
Patients with at least one grade change in CGI-S score ([8]; 9 of the 15 patients, p≤0.01 Student's t test): 60%
Subjects reporting adverse events ([8]; 18 subjects): All subjects reported at least one adverse event
Change in YGTSS scores, intent to treat analysis ([8]; entire population n=18): statistically significant changes were evident
Change in YGTSS scores (motor, phonic, total severity), baseline to last visit ([8]; fifteen patients who completed the trial, 50 mg/day Weeks 1-2, 100 mg/day Weeks 3-8): highly statistically significant (Paired t-Test p<0.001) reduction
Changes in vital signs ([8]; human, in vivo): no clinically significant changes in vital signs
Serious adverse events ([8]; requiring medical intervention): no serious adverse events
Patients reporting AEs rated as severe ([8]; sedation, insomnia, decreased appetite, hypersensitivity, cold sweat, feeling jittery): Four
